Results published in ChEMBL document CHEMBL5465560, “Selectivity Literature for EUbOPEN Chemogenomic Library” (2024).

What was measured:
[1] = target: Mitogen-activated protein kinase 9 (Homo sapiens, UniProt P45984); assay: Selectivity interaction (Kinase panel (DSF assay)) EUB0001558a MAPK9
[2] = target: T1, Mitogen-activated protein kinase 12 (Homo sapiens) (UniProt P53778); assay: Selectivity interaction (KinomeScan (DiscoverX)) EUB0000666a MAPK12; details: at 10 µM
T1 sequence (whole entry): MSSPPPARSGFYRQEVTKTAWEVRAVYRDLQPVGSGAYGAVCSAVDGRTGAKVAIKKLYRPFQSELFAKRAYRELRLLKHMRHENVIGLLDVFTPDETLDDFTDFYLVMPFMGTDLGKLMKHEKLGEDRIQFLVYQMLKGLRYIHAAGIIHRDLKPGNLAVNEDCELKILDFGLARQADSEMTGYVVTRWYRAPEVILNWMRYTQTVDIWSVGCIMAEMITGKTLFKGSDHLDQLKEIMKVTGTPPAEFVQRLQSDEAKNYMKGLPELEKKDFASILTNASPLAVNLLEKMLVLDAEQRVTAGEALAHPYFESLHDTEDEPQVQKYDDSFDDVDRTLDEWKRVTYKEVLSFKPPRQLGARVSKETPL

[3] = target: MAP kinase-activated protein kinase 2 (Homo sapiens, UniProt P49137); assay: Selectivity interaction (Millipore kinase profiler) EUB0000124b MAPKAPK2; details: at 10 µM
[4] = target: Tyrosine-protein kinase FRK (Homo sapiens) (UniProt P42685); assay: Selectivity interaction (KinaseProfiler screening (Millipore)) EUB0000601a FRK; details: at 3 µM
[5] = target: T2, Bone morphogenetic protein receptor type-2 (Homo sapiens) (UniProt Q13873); details: at 10 µM
T2 sequence (whole entry): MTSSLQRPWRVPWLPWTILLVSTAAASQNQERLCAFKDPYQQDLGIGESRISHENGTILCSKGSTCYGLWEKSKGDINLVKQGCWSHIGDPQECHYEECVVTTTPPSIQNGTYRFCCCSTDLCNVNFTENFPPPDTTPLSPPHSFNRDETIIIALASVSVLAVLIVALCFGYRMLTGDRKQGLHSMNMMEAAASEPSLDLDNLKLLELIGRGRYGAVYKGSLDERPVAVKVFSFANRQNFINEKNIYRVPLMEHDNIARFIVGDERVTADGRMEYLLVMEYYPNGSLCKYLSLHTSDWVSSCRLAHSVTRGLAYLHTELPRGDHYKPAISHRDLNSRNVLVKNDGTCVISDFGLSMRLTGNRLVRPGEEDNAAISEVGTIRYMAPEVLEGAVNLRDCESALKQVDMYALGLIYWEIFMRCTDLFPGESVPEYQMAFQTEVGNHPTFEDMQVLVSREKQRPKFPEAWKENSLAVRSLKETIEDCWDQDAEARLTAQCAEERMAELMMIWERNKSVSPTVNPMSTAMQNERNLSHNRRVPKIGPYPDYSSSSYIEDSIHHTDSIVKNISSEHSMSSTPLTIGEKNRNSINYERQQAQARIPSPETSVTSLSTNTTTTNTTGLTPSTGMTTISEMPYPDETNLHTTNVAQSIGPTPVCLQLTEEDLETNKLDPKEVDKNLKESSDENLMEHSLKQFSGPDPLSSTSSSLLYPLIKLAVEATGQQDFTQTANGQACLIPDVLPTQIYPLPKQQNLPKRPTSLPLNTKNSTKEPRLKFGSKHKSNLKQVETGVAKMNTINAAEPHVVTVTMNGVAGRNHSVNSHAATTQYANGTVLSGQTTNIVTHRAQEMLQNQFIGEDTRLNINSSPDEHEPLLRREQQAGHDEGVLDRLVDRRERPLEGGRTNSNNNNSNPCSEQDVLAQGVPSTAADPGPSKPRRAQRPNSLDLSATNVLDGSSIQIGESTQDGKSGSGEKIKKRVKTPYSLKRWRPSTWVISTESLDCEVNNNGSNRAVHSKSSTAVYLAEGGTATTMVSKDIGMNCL

[6] = target: T3, Mitogen-activated protein kinase 13 (Homo sapiens) (UniProt O15264); assay: Selectivity interaction (Kinase panel (Z-LYTE Assay)) EUB0001632a MAPK13; details: at 10 µM
T3 sequence (whole entry): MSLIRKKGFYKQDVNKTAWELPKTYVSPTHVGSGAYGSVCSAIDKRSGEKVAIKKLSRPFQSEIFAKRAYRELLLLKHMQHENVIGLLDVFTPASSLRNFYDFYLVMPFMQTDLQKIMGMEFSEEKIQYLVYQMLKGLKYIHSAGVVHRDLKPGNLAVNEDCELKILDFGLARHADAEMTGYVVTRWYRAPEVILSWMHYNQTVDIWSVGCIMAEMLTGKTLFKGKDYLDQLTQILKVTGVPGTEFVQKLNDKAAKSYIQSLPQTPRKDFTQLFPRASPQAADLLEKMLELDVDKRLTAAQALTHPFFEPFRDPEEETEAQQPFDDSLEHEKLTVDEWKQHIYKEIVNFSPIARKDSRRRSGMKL

[7] = target: Serine/threonine-protein kinase MARK2 (Homo sapiens) (UniProt Q7KZI7); assay: Selectivity interaction (Kinase panel (Z-LYTE Assay)) EUB0001632a MARK2; details: at 10 µM
[8] = target: Inactive tyrosine-protein kinase PEAK1 (Homo sapiens) (UniProt Q9H792); assay: Selectivity interaction (Kinase panel (Z-LYTE Assay)) EUB0001632a PEAK1; details: at 10 µM
[9] = target: Homeodomain-interacting protein kinase 1 (Homo sapiens, UniProt Q86Z02); assay: Selectivity interaction (Kinase panel (Invitrogen)) EUB0000639a HIPK1; details: at 200 nM
[10] = target: Phosphatidylinositol 4-phosphate 5-kinase type-1 gamma (Homo sapiens) (UniProt O60331); assay: Selectivity interaction (KinomeScan (DiscoverX)) EUB0000607a PIP5K1C; details: at 10 µM
[11] = target: Dual specificity tyrosine-phosphorylation-regulated kinase 1A (Homo sapiens, UniProt Q13627); assay: Selectivity interaction (KinomeScan (DiscoverX)) EUB0001049a DYRK1A; details: at 1 µM
[12] = target: Receptor-type tyrosine-protein kinase FLT3 (Homo sapiens) (UniProt P36888); assay: Selectivity interaction (KinomeScan (DiscoverX)) EUB0000695a FLT3; details: at 100 nM
[13] = target: NT-3 growth factor receptor (Homo sapiens, UniProt Q16288); assay: Selectivity interaction (KinomeScan (DiscoverX)) EUB0000045b NTRK3
Sequence of NT-3 growth factor receptor (Q16288 32-839 limits assumed): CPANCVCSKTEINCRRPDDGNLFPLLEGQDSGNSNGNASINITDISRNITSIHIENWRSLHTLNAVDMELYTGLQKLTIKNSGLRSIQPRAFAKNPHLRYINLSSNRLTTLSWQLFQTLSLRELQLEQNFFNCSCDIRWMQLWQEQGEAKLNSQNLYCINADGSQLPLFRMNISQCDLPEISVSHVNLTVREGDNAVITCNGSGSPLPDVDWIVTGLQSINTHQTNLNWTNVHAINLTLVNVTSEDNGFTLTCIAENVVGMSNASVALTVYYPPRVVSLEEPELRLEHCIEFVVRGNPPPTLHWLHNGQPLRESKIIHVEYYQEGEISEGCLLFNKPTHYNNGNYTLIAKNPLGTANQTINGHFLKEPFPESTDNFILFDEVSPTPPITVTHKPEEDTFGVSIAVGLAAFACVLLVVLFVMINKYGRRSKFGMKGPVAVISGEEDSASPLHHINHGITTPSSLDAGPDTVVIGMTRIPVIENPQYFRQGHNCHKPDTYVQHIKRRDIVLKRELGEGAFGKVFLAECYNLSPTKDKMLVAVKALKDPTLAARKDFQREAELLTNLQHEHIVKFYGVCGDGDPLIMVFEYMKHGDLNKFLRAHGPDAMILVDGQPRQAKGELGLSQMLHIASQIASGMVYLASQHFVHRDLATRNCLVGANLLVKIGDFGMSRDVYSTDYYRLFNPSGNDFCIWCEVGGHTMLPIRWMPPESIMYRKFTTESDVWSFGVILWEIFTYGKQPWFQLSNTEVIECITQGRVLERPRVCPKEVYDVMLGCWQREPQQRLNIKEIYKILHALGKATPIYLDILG

Sequence of Homeodomain-interacting protein kinase 1 (Q86Z02 whole entry, looked up): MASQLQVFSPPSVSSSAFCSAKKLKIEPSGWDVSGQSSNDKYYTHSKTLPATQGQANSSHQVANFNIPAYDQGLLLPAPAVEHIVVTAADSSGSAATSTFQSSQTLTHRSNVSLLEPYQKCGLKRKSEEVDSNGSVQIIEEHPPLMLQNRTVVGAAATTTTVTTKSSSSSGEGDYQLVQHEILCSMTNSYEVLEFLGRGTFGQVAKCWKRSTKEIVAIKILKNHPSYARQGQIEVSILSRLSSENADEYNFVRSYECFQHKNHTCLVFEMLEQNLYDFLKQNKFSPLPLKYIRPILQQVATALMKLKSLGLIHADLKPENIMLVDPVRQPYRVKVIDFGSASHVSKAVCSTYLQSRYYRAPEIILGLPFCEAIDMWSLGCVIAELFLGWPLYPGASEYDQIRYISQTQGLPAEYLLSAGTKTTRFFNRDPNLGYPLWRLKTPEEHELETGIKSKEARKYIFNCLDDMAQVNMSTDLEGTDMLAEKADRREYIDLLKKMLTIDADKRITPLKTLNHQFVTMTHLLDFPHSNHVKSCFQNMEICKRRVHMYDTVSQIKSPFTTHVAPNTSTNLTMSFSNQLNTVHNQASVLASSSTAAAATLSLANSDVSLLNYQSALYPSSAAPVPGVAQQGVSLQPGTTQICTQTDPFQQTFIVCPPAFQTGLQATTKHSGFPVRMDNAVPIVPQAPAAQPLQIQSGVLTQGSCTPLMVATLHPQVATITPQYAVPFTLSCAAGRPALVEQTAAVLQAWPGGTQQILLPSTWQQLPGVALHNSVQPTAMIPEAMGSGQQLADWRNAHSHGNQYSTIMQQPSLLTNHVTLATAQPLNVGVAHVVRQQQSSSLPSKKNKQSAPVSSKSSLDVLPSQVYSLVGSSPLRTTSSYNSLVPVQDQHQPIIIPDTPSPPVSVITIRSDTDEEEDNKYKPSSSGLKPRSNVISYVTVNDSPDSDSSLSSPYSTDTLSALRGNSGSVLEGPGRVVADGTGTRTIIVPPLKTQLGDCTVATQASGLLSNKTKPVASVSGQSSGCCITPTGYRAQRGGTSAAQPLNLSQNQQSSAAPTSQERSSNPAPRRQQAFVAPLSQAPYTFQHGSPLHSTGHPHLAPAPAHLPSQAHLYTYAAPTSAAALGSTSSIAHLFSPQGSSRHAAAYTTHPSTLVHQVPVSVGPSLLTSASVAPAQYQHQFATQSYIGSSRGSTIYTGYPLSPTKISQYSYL
Sequence of Inactive tyrosine-protein kinase PEAK1 (Homo sapiens) (Q9H792 whole entry): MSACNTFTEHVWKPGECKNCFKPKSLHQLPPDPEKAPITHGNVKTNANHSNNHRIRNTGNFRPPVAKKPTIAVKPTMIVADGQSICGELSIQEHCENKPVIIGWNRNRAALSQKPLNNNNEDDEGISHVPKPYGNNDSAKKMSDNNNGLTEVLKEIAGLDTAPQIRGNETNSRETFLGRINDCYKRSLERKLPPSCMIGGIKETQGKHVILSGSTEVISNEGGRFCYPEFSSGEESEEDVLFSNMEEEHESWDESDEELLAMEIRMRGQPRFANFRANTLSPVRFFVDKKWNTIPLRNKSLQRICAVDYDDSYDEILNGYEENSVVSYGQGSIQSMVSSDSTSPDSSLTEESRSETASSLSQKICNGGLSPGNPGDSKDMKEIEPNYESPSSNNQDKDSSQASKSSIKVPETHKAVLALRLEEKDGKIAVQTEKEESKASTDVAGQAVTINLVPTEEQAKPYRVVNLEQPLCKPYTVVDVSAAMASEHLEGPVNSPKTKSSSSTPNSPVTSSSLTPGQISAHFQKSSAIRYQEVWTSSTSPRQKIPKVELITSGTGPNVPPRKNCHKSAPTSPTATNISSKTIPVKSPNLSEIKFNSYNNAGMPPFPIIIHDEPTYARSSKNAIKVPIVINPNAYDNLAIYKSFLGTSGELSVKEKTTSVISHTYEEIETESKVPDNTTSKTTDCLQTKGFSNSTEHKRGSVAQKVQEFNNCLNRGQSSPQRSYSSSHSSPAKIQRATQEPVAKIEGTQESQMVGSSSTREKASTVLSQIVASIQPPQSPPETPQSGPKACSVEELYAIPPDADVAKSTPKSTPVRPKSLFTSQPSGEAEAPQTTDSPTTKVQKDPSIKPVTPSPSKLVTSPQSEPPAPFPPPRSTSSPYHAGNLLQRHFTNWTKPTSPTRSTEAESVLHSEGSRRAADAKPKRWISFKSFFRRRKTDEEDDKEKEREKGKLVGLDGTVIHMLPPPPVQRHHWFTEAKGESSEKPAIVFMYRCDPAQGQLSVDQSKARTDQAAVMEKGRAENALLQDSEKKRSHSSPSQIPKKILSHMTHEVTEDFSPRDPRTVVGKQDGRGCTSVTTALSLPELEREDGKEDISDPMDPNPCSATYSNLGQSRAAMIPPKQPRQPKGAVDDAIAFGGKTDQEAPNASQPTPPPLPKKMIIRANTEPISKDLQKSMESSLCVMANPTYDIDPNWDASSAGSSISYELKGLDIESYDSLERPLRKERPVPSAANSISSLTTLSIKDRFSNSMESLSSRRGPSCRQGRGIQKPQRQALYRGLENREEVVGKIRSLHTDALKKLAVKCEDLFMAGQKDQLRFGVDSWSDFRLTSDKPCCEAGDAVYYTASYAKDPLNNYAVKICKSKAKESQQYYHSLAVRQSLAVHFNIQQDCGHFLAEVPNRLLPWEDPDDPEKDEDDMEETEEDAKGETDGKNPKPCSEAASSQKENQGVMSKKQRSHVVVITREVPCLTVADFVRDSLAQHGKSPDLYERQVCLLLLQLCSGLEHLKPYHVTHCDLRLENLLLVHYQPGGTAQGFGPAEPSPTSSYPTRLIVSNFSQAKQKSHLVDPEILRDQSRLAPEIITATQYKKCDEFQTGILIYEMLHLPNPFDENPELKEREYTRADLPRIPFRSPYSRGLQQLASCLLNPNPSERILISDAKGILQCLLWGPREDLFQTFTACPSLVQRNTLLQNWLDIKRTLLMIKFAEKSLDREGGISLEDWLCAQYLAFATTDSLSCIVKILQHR
Sequence of Phosphatidylinositol 4-phosphate 5-kinase type-1 gamma (Homo sapiens) (O60331 whole entry): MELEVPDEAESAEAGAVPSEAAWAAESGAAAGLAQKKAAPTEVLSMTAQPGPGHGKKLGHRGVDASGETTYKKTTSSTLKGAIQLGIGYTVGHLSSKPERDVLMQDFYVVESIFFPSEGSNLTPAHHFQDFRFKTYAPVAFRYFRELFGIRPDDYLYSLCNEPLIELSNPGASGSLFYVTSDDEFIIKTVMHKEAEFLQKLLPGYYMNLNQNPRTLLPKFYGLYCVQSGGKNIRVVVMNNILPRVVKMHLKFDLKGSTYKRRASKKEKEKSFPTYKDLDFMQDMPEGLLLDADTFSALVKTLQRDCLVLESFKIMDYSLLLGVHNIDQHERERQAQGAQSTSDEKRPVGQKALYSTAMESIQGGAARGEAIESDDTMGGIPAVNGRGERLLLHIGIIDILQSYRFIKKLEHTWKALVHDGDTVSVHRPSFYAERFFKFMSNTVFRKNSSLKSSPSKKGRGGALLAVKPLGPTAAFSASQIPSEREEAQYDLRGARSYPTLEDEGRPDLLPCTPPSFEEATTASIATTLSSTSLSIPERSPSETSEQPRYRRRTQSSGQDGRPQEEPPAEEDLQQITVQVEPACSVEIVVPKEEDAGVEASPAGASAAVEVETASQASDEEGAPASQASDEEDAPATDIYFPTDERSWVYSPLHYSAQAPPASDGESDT
Sequence of Mitogen-activated protein kinase 9 (P45984 whole entry, looked up): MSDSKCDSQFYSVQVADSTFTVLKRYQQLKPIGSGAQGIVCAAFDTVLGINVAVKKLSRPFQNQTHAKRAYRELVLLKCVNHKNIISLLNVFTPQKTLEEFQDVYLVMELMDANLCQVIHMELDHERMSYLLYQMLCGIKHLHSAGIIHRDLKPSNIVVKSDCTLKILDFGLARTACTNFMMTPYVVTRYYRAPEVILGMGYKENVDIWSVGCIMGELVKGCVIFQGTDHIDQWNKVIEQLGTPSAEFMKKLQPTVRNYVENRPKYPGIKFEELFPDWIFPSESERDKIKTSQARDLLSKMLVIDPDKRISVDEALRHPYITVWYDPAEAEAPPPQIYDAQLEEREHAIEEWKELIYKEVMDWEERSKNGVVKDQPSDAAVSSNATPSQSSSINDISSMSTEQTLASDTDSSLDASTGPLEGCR

**Q.** `CC(C)(O)[C@H](F)CN1Cc2cc(NC(=O)c3cnn4cccnc34)c(N3CCOCC3)cc2C1=O` was tested. Which dTM [1] did it give?
**A.** The dTM was 1.6 K.

**Q.** For `O=C(NOC[C@H](O)CO)c1ccc(F)c(F)c1Nc1ccc(I)cc1F`, which % of control [2] is on record?
**A.** The % of control was 100%.

**Q.** Which % of control [3] does the source give for `CC(=O)Nc1cccc(-n2c(=O)n(C3CC3)c(=O)c3c(Nc4ccc(I)cc4F)n(C)c(=O)c(C)c32)c1` here?
**A.** The % of control was 109%.

**Q.** Which % of inhibition [4] does the source give for `CCc1cc(Nc2nccc(-c3c(-c4ccc(OC)c(C(=O)Nc5c(F)cccc5F)c4)nc4ccccn34)n2)c(OC)cc1N1CCC(N2CCN(S(C)(=O)=O)CC2)CC1` here?
**A.** Its % of inhibition is 97%.

**Q.** `Cc1cc([C@@H](C)Nc2ccccc2C(=O)O)c2nc(N3CCOCC3)cc(=O)n2c1` [AZD-6482] was tested. Which % of control [5] did it give?
**A.** Its % of control is 69%.

**Q.** Which results are given for `Cn1cc(-n2cnc3c(NCc4nc5cc(Cl)c(Cl)cc5[nH]4)nc(N4CCOCC4)nc32)cn1`?
**A.** % of control [6]: 3.12%; % of control [7]: 5.56%; % of control [8]: 11.7%

**Q.** Which % of inhibition [9] does the source give for `CC[C@@H]1[C@H](F)C(=O)N[C@@H]1COc1nccc2cc(C(N)=O)c(OC)cc12` [ZIMLOVISERTIB] here?
**A.** The % of inhibition was 7.68%.

**Q.** For `CNC(=O)Nc1ccc(-c2nc(N3CC4CCC(C3)O4)c3cnn(C4CCC5(CC4)OCCO5)c3n2)cc1`, which % of control [10] is on record?
**A.** The % of control was 100%.

**Q.** With `COc1cc(Nc2nc(C)cc(-c3cnn4nc(OC)ccc34)n2)cc(C(F)(F)F)c1` as the molecule, how does the % of control [11] read?
**A.** Its % of control is 74%.

**Q.** For `Cc1cc(F)c(C(=O)Nc2cccc(-c3nncn3C(C)C)n2)cc1-n1cnc(C2CC2)c1`, which % of control [12] is on record?
**A.** Its % of control is 100%.

**Q.** For `C=CC(=O)Nc1cc(-n2c(=O)ccc3cnc4ccc(-c5ccc(NS(C)(=O)=O)cc5)cc4c32)ccc1C`, which % of control ([13]; at 1 µM) is on record?
**A.** The % of control was 100%.

**Q.** And the % of control ([13]; at 10 µM)?
**A.** The % of control was 100%.
